Assay results reported in US11420958B2, “Aryl and heteroaryl substituted indole compounds” (BRISTOL-MYERS SQUIBB COMPANY, priority 2017, dated 2022).
pIC50: −log10 of the molar value.

Tests used:
Type in all cases: cell-based
human TLR7 = human TLR7 (Homo sapiens (Human), UniProt Q9NYK1); test: TLR7 inhibition reporter assay (HEK-Blue, SEAP); conditions: HEK-Blue cells overexpressing human TLR7, gardiquimod 7.5 μM stimulation
In short: (§1)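 SEAP read-out via detection medium after 22 h at 37 °C, 5% CO2; percent inhibition relative to agonist-plus-DMSO and known-inhibitor wells. Agonists: TLR7 gardiquimod 7.5 μM, TLR8 R848 15.9 μM, TLR9 ODN2006 5 nM (final). Compound range 0.05 nM–50 μM, 30 min pre-treatment.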

human TLR8 = human TLR8 (Homo sapiens (Human), UniProt Q9NR97); test: TLR8 inhibition reporter assay (HEK-Blue, SEAP); conditions: HEK-Blue cells overexpressing human TLR8, R848 15.9 μM stimulation
In short: as §1

human TLR9 = human TLR9 (Homo sapiens (Human), UniProt Q9NR96); test: TLR9 inhibition reporter assay (HEK-Blue, SEAP); conditions: HEK-Blue cells overexpressing human TLR9, ODN2006 5 nM stimulation
In short: as §1

human TLR8, sequence (Q9NR97 27-1041): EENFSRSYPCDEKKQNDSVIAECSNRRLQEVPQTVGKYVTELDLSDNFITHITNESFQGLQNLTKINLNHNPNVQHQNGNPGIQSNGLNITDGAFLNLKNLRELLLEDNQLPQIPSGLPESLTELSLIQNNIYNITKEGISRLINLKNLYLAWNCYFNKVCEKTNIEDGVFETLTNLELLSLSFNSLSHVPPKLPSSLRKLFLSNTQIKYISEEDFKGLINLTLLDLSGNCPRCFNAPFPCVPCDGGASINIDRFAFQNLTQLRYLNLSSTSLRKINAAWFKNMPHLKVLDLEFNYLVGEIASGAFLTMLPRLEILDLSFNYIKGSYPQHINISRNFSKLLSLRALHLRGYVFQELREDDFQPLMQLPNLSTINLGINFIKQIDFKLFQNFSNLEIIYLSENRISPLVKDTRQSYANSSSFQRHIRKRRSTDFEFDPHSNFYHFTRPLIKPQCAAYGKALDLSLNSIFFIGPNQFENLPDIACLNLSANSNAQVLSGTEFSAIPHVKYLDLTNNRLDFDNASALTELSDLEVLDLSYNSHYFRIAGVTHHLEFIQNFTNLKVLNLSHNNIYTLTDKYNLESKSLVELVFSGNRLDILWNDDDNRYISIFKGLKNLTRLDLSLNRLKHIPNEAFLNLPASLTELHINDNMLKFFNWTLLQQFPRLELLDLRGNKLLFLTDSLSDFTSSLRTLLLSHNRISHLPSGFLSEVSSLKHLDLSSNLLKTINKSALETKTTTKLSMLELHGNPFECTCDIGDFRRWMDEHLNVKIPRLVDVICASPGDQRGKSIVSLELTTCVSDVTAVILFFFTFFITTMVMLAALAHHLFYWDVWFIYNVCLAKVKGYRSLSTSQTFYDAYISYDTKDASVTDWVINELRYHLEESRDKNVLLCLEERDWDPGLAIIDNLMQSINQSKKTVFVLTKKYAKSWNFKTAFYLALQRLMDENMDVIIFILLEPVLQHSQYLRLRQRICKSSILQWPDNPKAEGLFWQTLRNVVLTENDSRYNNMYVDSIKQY
human TLR7, sequence (Q9NYK1 27-1049): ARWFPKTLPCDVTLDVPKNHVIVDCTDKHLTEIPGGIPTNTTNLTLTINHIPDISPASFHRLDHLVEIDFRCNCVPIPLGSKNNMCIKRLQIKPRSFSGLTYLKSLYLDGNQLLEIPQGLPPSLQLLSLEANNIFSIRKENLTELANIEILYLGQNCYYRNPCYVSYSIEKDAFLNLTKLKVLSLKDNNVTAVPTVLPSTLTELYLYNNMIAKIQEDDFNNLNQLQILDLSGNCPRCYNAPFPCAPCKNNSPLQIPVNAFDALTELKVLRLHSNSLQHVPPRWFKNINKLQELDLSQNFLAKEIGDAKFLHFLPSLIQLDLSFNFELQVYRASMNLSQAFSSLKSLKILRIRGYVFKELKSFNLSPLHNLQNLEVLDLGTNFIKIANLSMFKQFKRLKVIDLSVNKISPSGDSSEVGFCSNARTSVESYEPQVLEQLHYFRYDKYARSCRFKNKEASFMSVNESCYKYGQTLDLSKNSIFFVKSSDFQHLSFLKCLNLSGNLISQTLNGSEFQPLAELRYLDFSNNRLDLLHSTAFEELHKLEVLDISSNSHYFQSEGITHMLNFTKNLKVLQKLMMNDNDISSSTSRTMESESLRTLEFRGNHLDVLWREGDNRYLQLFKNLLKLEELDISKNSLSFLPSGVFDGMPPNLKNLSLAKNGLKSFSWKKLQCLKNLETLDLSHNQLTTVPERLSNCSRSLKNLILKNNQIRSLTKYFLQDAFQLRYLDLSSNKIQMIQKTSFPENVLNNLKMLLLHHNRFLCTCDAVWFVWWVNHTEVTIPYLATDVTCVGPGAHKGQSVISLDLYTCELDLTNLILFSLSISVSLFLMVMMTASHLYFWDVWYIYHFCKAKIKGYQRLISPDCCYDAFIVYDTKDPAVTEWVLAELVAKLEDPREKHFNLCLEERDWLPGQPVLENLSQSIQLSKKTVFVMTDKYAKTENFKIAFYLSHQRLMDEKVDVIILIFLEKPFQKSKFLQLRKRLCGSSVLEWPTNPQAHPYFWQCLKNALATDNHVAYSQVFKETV
human TLR9, sequence (Q9NR96 26-1032): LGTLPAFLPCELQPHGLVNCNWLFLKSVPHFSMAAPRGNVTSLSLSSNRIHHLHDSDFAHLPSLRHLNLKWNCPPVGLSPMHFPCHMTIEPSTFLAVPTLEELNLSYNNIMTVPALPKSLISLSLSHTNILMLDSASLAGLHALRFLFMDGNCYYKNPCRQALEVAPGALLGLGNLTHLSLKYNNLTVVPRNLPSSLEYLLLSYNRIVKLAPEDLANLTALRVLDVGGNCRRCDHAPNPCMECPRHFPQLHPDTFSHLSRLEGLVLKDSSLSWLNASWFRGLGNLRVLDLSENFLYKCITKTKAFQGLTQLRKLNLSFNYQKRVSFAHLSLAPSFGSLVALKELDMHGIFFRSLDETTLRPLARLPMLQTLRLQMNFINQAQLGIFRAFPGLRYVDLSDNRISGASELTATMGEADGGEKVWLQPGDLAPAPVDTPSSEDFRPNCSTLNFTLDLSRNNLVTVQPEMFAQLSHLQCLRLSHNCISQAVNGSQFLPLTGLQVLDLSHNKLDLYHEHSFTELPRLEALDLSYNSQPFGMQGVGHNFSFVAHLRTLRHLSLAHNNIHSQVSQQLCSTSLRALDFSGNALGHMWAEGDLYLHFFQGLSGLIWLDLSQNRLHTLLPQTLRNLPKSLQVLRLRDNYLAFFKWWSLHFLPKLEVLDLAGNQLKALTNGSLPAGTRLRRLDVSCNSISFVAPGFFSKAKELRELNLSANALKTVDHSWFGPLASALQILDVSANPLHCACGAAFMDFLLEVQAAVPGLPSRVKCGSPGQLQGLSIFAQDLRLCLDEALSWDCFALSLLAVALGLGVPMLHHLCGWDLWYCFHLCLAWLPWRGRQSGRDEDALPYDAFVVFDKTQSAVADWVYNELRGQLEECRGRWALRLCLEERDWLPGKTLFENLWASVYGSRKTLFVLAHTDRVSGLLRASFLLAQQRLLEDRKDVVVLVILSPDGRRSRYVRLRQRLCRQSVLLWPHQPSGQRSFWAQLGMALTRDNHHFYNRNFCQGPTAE

SMILES | pIC50 (human TLR7) | pIC50 (human TLR8) | pIC50 (human TLR9)
CC(C)c1c(-c2ccnc3[nH]ncc23)[nH]c2ccc(-c3nnc(CN(C)C(C)C)o3)cc12 [Example 154, N-((5-(3-isopropyl-2-(1H-pyrazolo[3,4-b]pyridin-4-yl)-1H-indol-5-yl)-1,3,4-oxadiazol-2-yl)methyl)-N-methylpropan-2-amine] | 5.85 | 7.51 | < 4.30
COc1ccc(-c2[nH]c3ccc(-c4ccc(OC5CCN(C)CC5)cc4)cc3c2C(C)C)cc1OC [Example 387, 2-(3,4-dimethoxyphenyl)-3-isopropyl-5-(4-((1-methylpiperidin-4-yl)oxy)phenyl)-1H-indole] | 7.47 | 7.66 | 5.41
CC(C)c1c(-c2ccnc3[nH]ncc23)[nH]c2ccc(-c3ccnc4[nH]ncc34)cc12 [Example 177, 4,4′-(3-isopropyl-1H-indole-2,5-diyl)bis(1H-pyrazolo[3,4-b]pyridine)] | 7.35 | 8.43 | 4.62
COc1ccc(-c2[nH]c3ccc(-c4ccnc(C(=O)N5CCNCC5)c4)cc3c2C(C)C)cc1OC [Example 14, (4-(2-(3,4-dimethoxyphenyl)-3-isopropyl-1H-indol-5-yl)pyridin-2-yl)(piperazin-1-yl)methanone] | 5.97 | 5.98 | < 4.30
CC(C)c1c(-c2ccnc3[nH]ncc23)[nH]c2ccc(-c3nnc([C@@H]4CCCNC4)o3)cc12 [Example 103, (R)-2-(3-isopropyl-2-(1H-pyrazolo[3,4-b]pyridin-4-yl)-1H-indol-5-yl)-5-(piperidin-3-yl)-1,3,4-oxadiazole] | 7.27 | 8.27 | 6.78
CCc1c(-c2ccnc(C)c2)[nH]c2ccc(-c3noc(C4CC5(CCNCC5)C4)n3)cc12 [Example 461, 3-(3-ethyl-2-(2-methylpyridin-4-yl)-1H-indol-5-yl)-5-(7-azaspiro[3.5]nonan-2-yl)-1,2,4-oxadiazole] | 6.49 | 7.14 | 5.81
CC(C)c1c(-c2ccc3nccn3c2)[nH]c2ccc(-c3nnc(C(=O)NCCN(C)C)o3)cc12 [Example 242, N-(2-(dimethylamino)ethyl)-5-(2-(imidazo[1,2-a]pyridin-6-yl)-3-isopropyl-1H-indol-5-yl)-1,3,4-oxadiazole-2-carboxamide] | 7.66 | 7.52 | 6.51
CCc1c(-c2ccnc(C)c2)[nH]c2ccc(-c3noc(C4CNC4)n3)cc12 [Example 458, 5-(azetidin-3-yl)-3-(3-ethyl-2-(2-methylpyridin-4-yl)-1H-indol-5-yl)-1,2,4-oxadiazole] | 6.79 | 7.43 | 5.98
C#CCN(C)Cc1nnc(-c2ccc3[nH]c(-c4ccc(OC)c(OC)c4)c(C(C)C)c3c2)o1 [Example 123, N-((5-(2-(3,4-dimethoxyphenyl)-3-isopropyl-1H-indol-5-yl)-1,3,4-oxadiazol-2-yl)methyl)-N-methylprop-2-yn-1-amine] | 6.15 | 6.67 | < 4.30
CC(C)c1c(-c2ccnc3[nH]ncc23)[nH]c2ccc(-c3nnc(C4CCCN(C)C4)o3)cc12 (stereo not drawn) [Example 168, 2-(3-isopropyl-2-(1H-pyrazolo[3,4-b]pyridin-4-yl)-1H-indol-5-yl)-5-(1-methylpiperidin-3-yl)-1,3,4-oxadiazole] | 7.09 | 8.72 | 5.97
Cc1cc(-c2[nH]c3ccc(-c4nnc(CCCCN)o4)cc3c2C(C)C)ccn1 [Example 264, 4-(5-(3-isopropyl-2-(2-methylpyridin-4-yl)-1H-indol-5-yl)-1,3,4-oxadiazol-2-yl)butan-1-amine] | 6.60 | 7.44 | 5.14
CNCCNc1ccc(-c2ccc3[nH]c(-c4ccc(OC)c(OC)c4)c(C(C)C)c3c2)cc1 [Example 404, N1-(4-(2-(3,4-dimethoxyphenyl)-3-isopropyl-1H-indol-5-yl)phenyl)-N2-methylethane-1,2-diamine] | 6.61 | 7.42 | 5.01
Cc1cc(-c2[nH]c3ccc(-c4nc(C)cs4)cc3c2C(C)C)ccn1 [Example 192, 2-(3-isopropyl-2-(2-methylpyridin-4-yl)-1H-indol-5-yl)-4-methylthiazole] | 6.00 | 6.67 | 5.54
CC(C)c1c(-c2ccnc3[nH]ncc23)[nH]c2ccc(-c3noc(C4CCN(C(=O)CN(C)C)CC4)n3)cc12 [Example 446, 2-(dimethylamino)-1-(4-(3-(3-isopropyl-2-(1H-pyrazolo[3,4-b]pyridin-4-yl)-1H-indol-5-yl)-1,2,4-oxadiazol-5-yl)piperidin-1-yl)ethan-1-one] | 7.57 | 8.40 | 5.99
CCc1c(-c2ccc(OC)c(OC)c2)[nH]c2ccc(-c3ccc(N4CCNCC4)cc3)cc12 [Example 399, 2-(3,4-dimethoxyphenyl)-3-ethyl-5-(4-(piperazin-1-yl)phenyl)-1H-indole] | 6.02 | 7.55 | 6.14
COc1ccc(-c2[nH]c3ccc(-c4cccc(N5CCN(C(C)C)CC5)c4)cc3c2C(C)C)cc1OC [Example 370, 2-(3,4-dimethoxyphenyl)-3-isopropyl-5-(3-(4-isopropylpiperazin-1-yl)phenyl)-1H-indole] | 5.41 | 7.03 | 5.32
CC(=O)Nc1ccc(-c2ccc3[nH]c(-c4ccnc(C)c4)c(C(C)C)c3c2)cn1 [Example 256, N-(5-(3-isopropyl-2-(2-methylpyridin-4-yl)-1H-indol-5-yl)pyridin-2-yl)acetamide] | 7.00 | 7.82 | < 4.30
CCc1c(-c2ccnc(C)c2)[nH]c2ccc(-c3noc(CCC4CCNCC4)n3)cc12 [Example 448, 3-(3-ethyl-2-(2-methylpyridin-4-yl)-1H-indol-5-yl)-5-(2-(piperidin-4-yl)ethyl)-1,2,4-oxadiazole] | 6.49 | 7.30 | 5.75
Cc1cc(-c2[nH]c3ccc(-c4ccnc(C5CCN(C(C)C)CC5)c4)cc3c2C(C)C)ccn1 [Example 272, 3-isopropyl-5-(2-(1-isopropylpiperidin-4-yl)pyridin-4-yl)-2-(2-methylpyridin-4-yl)-1H-indole] | 7.62 | 8.05 | 6.42
CCc1c(-c2ccc(OC)c(OC)c2)[nH]c2ccc(-c3noc([C@@H](N)CCCN)n3)cc12 [Example 463, (S)-1-(3-(2-(3,4-dimethoxyphenyl)-3-ethyl-1H-indol-5-yl)-1,2,4-oxadiazol-5-yl)butane-1,4-diamine] | 6.11 | 6.90 | 5.15
Cc1cc(-c2[nH]c3ccc(-c4ccc(N5CCC5)nc4)cc3c2C(C)C)cc(C)n1 [Example 338, 5-(6-(azetidin-1-yl)pyridin-3-yl)-2-(2,6-dimethylpyridin-4-yl)-3-isopropyl-1H-indole] | 7.74 | 7.51 | 4.33
COc1ccc(-c2[nH]c3ccc(-c4cccc(C(=O)N5CCCN(C)CC5)c4)cc3c2C(C)C)cc1OC [Example 5, (3-(2-(3,4-dimethoxyphenyl)-3-isopropyl-1H-indol-5-yl)phenyl)(4-methyl-1,4-diazepan-1-yl)methanone] | 6.92 | 8.17 | 5.48
CNCCN1CCn2nc(-c3ccc4[nH]c(-c5ccnc6[nH]ncc56)c(C(C)C)c4c3)nc2C1 [Example 217, 2-(2-(3-isopropyl-2-(1H-pyrazolo[3,4-b]pyridin-4-yl)-1H-indol-5-yl)-5,6-dihydro-[1,2,4]triazolo[1,5-a]pyrazin-7(8H)-yl)-N-methylethan-1-amine] | 6.38 | 7.39 | < 4.30
Cc1cc(-c2[nH]c3ccc(-c4nnc(C(=O)NC5CCNC5)s4)cc3c2C(C)C)ccn1 (stereo not drawn) [Example 137, 5-(3-isopropyl-2-(2-methylpyridin-4-yl)-1H-indol-5-yl)-N-(pyrrolidin-3-yl)-1,3,4-thiadiazole-2-carboxamide] | 7.54 | 8.57 | 6.15
CN[C@@H](C)c1nnc(-c2ccc3[nH]c(-c4ccc(OC)c(OC)c4)c(C(C)C)c3c2)o1 [Example 49, (S)-1-(5-(2-(3,4-dimethoxyphenyl)-3-isopropyl-1H-indol-5-yl)-1,3,4-oxadiazol-2-yl)-N-methylethan-1-amine] | 6.77 | 7.96 | 4.94
COc1ccc(-c2[nH]c3ccc(-c4nnc(C)o4)cc3c2C(C)C)cc1OC [Example 63, 2-(2-(3,4-dimethoxyphenyl)-3-isopropyl-1H-indol-5-yl)-5-methyl-1,3,4-oxadiazole] | 6.32 | 6.63 | < 4.30
Cc1cc(-c2[nH]c3ccc(-c4nnc(N)o4)cc3c2C(C)C)ccn1 [Example 174, 5-(3-isopropyl-2-(2-methylpyridin-4-yl)-1H-indol-5-yl)-1,3,4-oxadiazol-2-amine] | 7.28 | 7.85 | 4.35
CC(C)c1c(-c2ccnc3[nH]ncc23)[nH]c2ccc(-c3cccc4cnccc34)cc12 [Example 470, 5-(3-isopropyl-2-(1H-pyrazolo[3,4-b]pyridin-4-yl)-1H-indol-5-yl)isoquinoline] | 5.59 | 7.25 | < 4.30
COc1ccc(-c2[nH]c3ccc(-c4cccc(C(=O)N[C@H]5CC[C@H](C(C)(C)O)CC5)c4)cc3c2C(C)C)cc1OC [Example 7, 3-(2-(3,4-dimethoxyphenyl)-3-isopropyl-1H-indol-5-yl)-N-((1r,4r)-4-(2-hydroxypropan-2-yl)cyclohexyl)benzamide] | 5.75 | 7.72 | < 4.30
